Where “and” joins values, the source holds several entries; their conditions need not be identical. Equal values may be shown once. Inconclusive results and toxic doses are left out. Rule for the calls: active = survival T/C of 150% or more; inactive = T/C below 125% in these data.
System: P388 leukemia ip, CD2F1 mice, survival T/C
Assay: NCI In Vivo Anticancer Drug Screen. Data for tumor model P388 Leukemia (intraperitoneal) in CD2F1 (CDF1) mice
Conditions: endpoint: median survival time, higher = longer survival
Outline: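 Mice carrying the transplanted tumor received test compound or vehicle. Survival was recorded in each group, and the value is the treated-group measurement divided by that of the vehicle-treated control group.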

[1] = dose: 50.0 mg/kg/injection, schedule: Q01DX005 (ip), vehicle: Klucel (hydroxypropylcellulose) (HPC)
[2] = dose: 100.0 mg/kg/injection, schedule: Q01DX005 (ip), vehicle: Klucel (hydroxypropylcellulose) (HPC)
[3] = dose: 200.0 mg/kg/injection, schedule: Q01DX009 (ip), vehicle: saline
[4] = dose: 60.0 mg/kg/injection, schedule: Q01DX005 (ip), vehicle: Klucel (hydroxypropylcellulose) (HPC)
[5] = dose: 120.0 mg/kg/injection, schedule: Q01DX005 (ip), vehicle: Klucel (hydroxypropylcellulose) (HPC)
[6] = dose: 240.0 mg/kg/injection, schedule: Q01DX005 (ip), vehicle: Klucel (hydroxypropylcellulose) (HPC)

Measured: T/C

O=C(O)c1cc(-c2ccncc2)nc2ccccc12
inactive: [1] 99 % of control | [2] 96 % of control | dose: 200.0 mg/kg/injection, schedule: Q01DX005 (ip), vehicle: Klucel (hydroxypropylcellulose) (HPC) 97 % of control

C[C@H]1CC(=O)C[C@H]2CCCCN21
inactive: dose: 12.5 mg/kg/injection, schedule: Q01DX005 (ip), vehicle: saline 103 % of control | dose: 25.0 mg/kg/injection, schedule: Q01DX005 (ip), vehicle: saline 105 % of control | dose: 50.0 mg/kg/injection, schedule: Q01DX005 (ip), vehicle: saline 101 % of control

COc1ccc(C(Cl)c2ccc(OC)c(OC)c2)cc1OC
inactive: dose: 25.0 mg/kg/injection, schedule: Q01DX009 (ip), vehicle: other 100 % of control | dose: 50.0 mg/kg/injection, schedule: Q01DX009 (ip), vehicle: other 90 % of control | dose: 100.0 mg/kg/injection, schedule: Q01DX009 (ip), vehicle: other 97 % of control

CC1=CCCC(C(C)O)O1 (stereo unspecified)
inactive: dose: 6.25 mg/kg/injection, schedule: Q01DX009 (ip), vehicle: saline 107 % of control | dose: 12.5 mg/kg/injection, schedule: Q01DX009 (ip), vehicle: saline 104 % of control | dose: 25.0 mg/kg/injection, schedule: Q01DX009 (ip), vehicle: saline 105 % of control | [3] 87 % of control

Cc1c2ccncc2c(C)c2c1[nH]c1ccc(OCCN(C)C)cc12
inactive: dose: 6.25 mg/kg/injection, schedule: Q04DX002 (ip), vehicle: water 108 % of control | dose: 12.5 mg/kg/injection, schedule: Q04DX002 (ip), vehicle: water 114 % of control | dose: 25.0 mg/kg/injection, schedule: Q04DX002 (ip), vehicle: water 119 % of control | dose: 50.0 mg/kg/injection, schedule: Q04DX002 (ip), vehicle: water 87 % of control

CC(C)(C)N1C(=O)NCC1(C)C
inactive: dose: 50.0 mg/kg/injection, schedule: Q01DX009 (ip), vehicle: saline 105 % of control | dose: 100.0 mg/kg/injection, schedule: Q01DX009 (ip), vehicle: saline 100 % of control | [3] 98 % of control

CCCCOc1cccc2c(NCCCCNCCCNc3c4ccccc4nc4c(OCCCC)cccc34)c3ccccc3nc12
inactive: dose: 0.63 mg/kg/injection, schedule: Q01DX009 (ip), vehicle: other 105 % of control | dose: 1.25 mg/kg/injection, schedule: Q01DX009 (ip), vehicle: other 120 % of control | dose: 2.5 mg/kg/injection, schedule: Q01DX009 (ip), vehicle: other 111 % of control | dose: 5.0 mg/kg/injection, schedule: Q01DX009 (ip), vehicle: other 121 % of control

COc1ccc2c(C)c3[n+](cc2c1OC)CCc1cc2c(cc1-3)OCO2
inactive: dose: 0.4 mg/kg/injection, schedule: Q01DX005 (ip), vehicle: saline 95 % of control | dose: 0.78 mg/kg/injection, schedule: Q04DX003 (ip), vehicle: water 102 % of control | dose: 0.8 mg/kg/injection, schedule: Q01DX005 (ip), vehicle: saline 101 % of control | dose: 1.56 mg/kg/injection, schedule: Q04DX003 (ip), vehicle: water 103 % of control | dose: 1.6 mg/kg/injection, schedule: Q01DX005 (ip), vehicle: saline 107 % of control | dose: 3.13 mg/kg/injection, schedule: Q04DX003 (ip), vehicle: water 106 % of control | dose: 6.25 mg/kg/injection, schedule: Q04DX003 (ip), vehicle: water 97 % of control | dose: 12.5 mg/kg/injection, schedule: Q04DX003 (ip), vehicle: water 97 % of control

CCCCCCCCC(=O)c1c(OC)oc(/C=N/NC(N)=O)cc1=O
inactive: dose: 25.0 mg/kg/injection, schedule: Q01DX009 (ip), vehicle: Klucel (hydroxypropylcellulose) (HPC) 92 % of control | dose: 50.0 mg/kg/injection, schedule: Q01DX009 (ip), vehicle: Klucel (hydroxypropylcellulose) (HPC) 89 % of control | dose: 100.0 mg/kg/injection, schedule: Q01DX009 (ip), vehicle: Klucel (hydroxypropylcellulose) (HPC) 92 % of control | dose: 200.0 mg/kg/injection, schedule: Q01DX009 (ip), vehicle: Klucel (hydroxypropylcellulose) (HPC) 91 % of control

COc1cc(C2CC(C)(N3CCCC3)Oc3cc4c(cc32)OCO4)cc(OC)c1OC (stereo unspecified)
inactive: [4] 106 % of control and 109 % of control

COC(=O)Nc1nc2ccc(C(C)(O)c3cccs3)cc2[nH]1 (stereo unspecified)
inactive: dose: 25.0 mg/kg/injection, schedule: Q01DX005 (ip), vehicle: saline with Tween-80 100 % of control | dose: 50.0 mg/kg/injection, schedule: Q01DX005 (ip), vehicle: saline with Tween-80 103 % of control | dose: 100.0 mg/kg/injection, schedule: Q01DX005 (ip), vehicle: saline with Tween-80 103 % of control | dose: 200.0 mg/kg/injection, schedule: Q01DX005 (ip), vehicle: saline with Tween-80 100 % of control

C/C=C(\C)c1cc(=O)c2c(C)cc3c(c2o1)C(=O)c1c(OC)cccc1C3=O
inactive: dose: 100.0 mg/kg/injection, schedule: Q01DX001 (ip), vehicle: saline with Tween-80 96 % of control | dose: 200.0 mg/kg/injection, schedule: Q01DX001 (ip), vehicle: saline with Tween-80 93 % of control | dose: 400.0 mg/kg/injection, schedule: Q01DX001 (ip), vehicle: saline with Tween-80 89 % of control

[Cl][Pt+2][Cl].[NH-]c1ccc(Cl)cc1[NH-]
active: dose: 6.25 mg/kg/injection, schedule: Q04DX002 (ip), vehicle: saline with Tween-80 150 % of control | dose: 12.5 mg/kg/injection, schedule: Q04DX002 (ip), vehicle: saline with Tween-80 157 % of control | dose: 25.0 mg/kg/injection, schedule: Q04DX002 (ip), vehicle: saline with Tween-80 168 % of control

COC(=O)c1cc(Cl)ccc1OS(N)(=O)=O
inactive: [4] 103 % of control | [5] 102 % of control | [6] 97 % of control

Cc1nnc(N/N=C/c2ccccc2)n1/N=C\c1ccccc1
inactive: dose: 100.0 mg/kg/injection, schedule: Q04DX003 (ip), vehicle: Klucel (hydroxypropylcellulose) (HPC) 101 % of control | dose: 200.0 mg/kg/injection, schedule: Q04DX003 (ip), vehicle: Klucel (hydroxypropylcellulose) (HPC) 100 % of control | dose: 400.0 mg/kg/injection, schedule: Q04DX003 (ip), vehicle: Klucel (hydroxypropylcellulose) (HPC) 105 % of control

CCCCCCCCCC(=O)c1cc(O)c(C(=O)CCCCCCCCC)cc1O
inactive: [4] 103 % of control | [5] 104 % of control | [6] 105 % of control

CC1OC(CC(=O)O)Cc2c1c(O)c1c(O)cc(-c3cc(=O)c4c(=O)c5c(c(=O)c=4c3=O)CC(CC(=O)O)OC5C)c(O)c1c2O (stereo unspecified)
inactive: dose: 6.25 mg/kg/injection, schedule: Q01DX009 (ip), vehicle: saline with Tween-80 100 % of control | dose: 12.5 mg/kg/injection, schedule: Q01DX009 (ip), vehicle: saline with Tween-80 102 % of control | dose: 25.0 mg/kg/injection, schedule: Q01DX009 (ip), vehicle: saline with Tween-80 103 % of control

CC1(C)COC(Cc2ccccc2)=N1
inactive: dose: 50.0 mg/kg/injection, schedule: Q01DX009 (ip), vehicle: saline with Tween-80 100 % of control | dose: 50.0 mg/kg/injection, schedule: Q04DX003 (ip), vehicle: saline with Tween-80 100 % of control | dose: 100.0 mg/kg/injection, schedule: Q01DX009 (ip), vehicle: saline with Tween-80 104 % of control | dose: 100.0 mg/kg/injection, schedule: Q04DX003 (ip), vehicle: saline with Tween-80 95 % of control | dose: 200.0 mg/kg/injection, schedule: Q01DX009 (ip), vehicle: saline with Tween-80 100 % of control | dose: 200.0 mg/kg/injection, schedule: Q04DX003 (ip), vehicle: saline with Tween-80 100 % of control

CC(C)C(C)C(O)C(O)C(C)C1CCC2C3COC(=O)C4CC(O)C(O)CC4(C)C3CCC12C (stereo unspecified)
inactive: dose: 0.75 mg/kg/injection, schedule: Q01DX009 (ip), vehicle: saline with Tween-80 106 % of control | dose: 1.05 mg/kg/injection, schedule: Q01DX009 (ip), vehicle: saline with Tween-80 98 % of control | dose: 1.5 mg/kg/injection, schedule: Q01DX009 (ip), vehicle: saline with Tween-80 112 % of control | dose: 2.1 mg/kg/injection, schedule: Q01DX009 (ip), vehicle: saline with Tween-80 103 % of control | dose: 3.0 mg/kg/injection, schedule: Q01DX009 (ip), vehicle: saline with Tween-80 99 % of control | dose: 4.2 mg/kg/injection, schedule: Q01DX009 (ip), vehicle: saline with Tween-80 100 % of control | dose: 6.0 mg/kg/injection, schedule: Q01DX009 (ip), vehicle: saline with Tween-80 103 % of control

CCOc1c(OC)cc(C2c3cc4c(c(OCC)c3CC3COC(=O)C32)OCO4)cc1OC (stereo unspecified)
inactive: dose: 12.5 mg/kg/injection, schedule: Q01DX005 (ip), vehicle: Klucel (hydroxypropylcellulose) (HPC) 94 % of control | dose: 25.0 mg/kg/injection, schedule: Q01DX005 (ip), vehicle: Klucel (hydroxypropylcellulose) (HPC) 91 % of control | [1] 86 % of control | [2] 97 % of control
